Data from patent US7888285B2, “2,4,6-phenyl substituted cyclic ketoenols” (Bayer CropScience AG, priority 2003, dated 2011).

What was measured:
Assay type in all cases: in vivo
[1] = system: green peach aphid (Myzus persicae); assay: Myzus test; conditions: 1000 ppm
Experimental: To prepare a suitable active compound preparation, 1 part by weight of active compound is mixed with the stated amounts of solvent and emulsifier and the concentrate is diluted with emulsifier-containing water to the desired concentration.
Cabbage leaves (Brassica oleracea), which are severely infested with the green peach aphid (Myzus persicae) are treated by immersing them into the active compound preparation of the desired concentration.
After the desired time, the destruction rate is determined in %. 100% means that all of the aphids have been destroyed; 0% means that none of the aphids have been destroyed.

[2] = system: larvae of the mustard beetle (Phaedon cochleariae); assay: Phaedon larvae test; conditions: 1000 ppm
Experimental: [table] To produce a suitable preparation of active compound, 1 part by weight of active compound is mixed with the stated amounts of solvent and emulsifier, and the concentrate is diluted with emulsifier-containing water to the desired concentration. Cabbage leaves (Brassica oleracea) are treated by being dipped into the preparation of active compound of the desired concentration and are infested with the larvae of the mustard beetle (Phaedon cochleariae) while the leaves are still moist.

Abultilon [3] = assay: Pre-emergence test; conditions: greenhouse, 250 g a.i./ha, scored after three weeks
Experimental: (§1) [table] To prepare a suitable active compound preparation, 1 part by weight of active compound is mixed with the stated amount of solvent, the stated amount of emulsifier is added, and the concentrate is diluted with water to the desired concentration. Seeds of the test plant are sown in normal soil. After approximately 24 hours, the soil is sprayed with the active compound preparation in such a way that the amounts of active compound desired in each case are applied per unit area. The concentration of the spray mixture is chosen in such a way that the amounts of active compound desired in each case are applied in 1 000 1 of water/ha. After three weeks, the degree of damage of the plants is scored in % damage in comparison with the development of the untreated control.

Sinapis [4] = assay: Pre-emergence test; conditions: greenhouse, 250 g a.i./ha, scored after three weeks
Experimental: as §1

Setaria [5] = assay: Pre-emergence test; conditions: greenhouse, scored after three weeks
Experimental: as §1

Avena fatua [6] = assay: Pre-emergence test; conditions: greenhouse, 250 g a.i./ha, scored after three weeks
Experimental: as §1

Echinochloa [7] = assay: Pre-emergence test; conditions: greenhouse, 250 g a.i./ha, scored after three weeks
Experimental: as §1

Alopecurus [8] = assay: Pre-emergence test; conditions: greenhouse, scored after three weeks
Experimental: as §1

[9] = system: greenhouse red spider mite (Tetranychus urticae); assay: Tetranychus test (OP-resistant/immersion treatment)
Experimental: (§2) To produce a suitable preparation of active compound, 1 part by weight of active compound is mixed with the stated amounts of solvent and emulsifier, and the concentrate is diluted with emulsifier-containing water to the desired concentration.
Bean plants (Phaseolus vulgaris) which are severely infested with all stages of the greenhouse red spider mite (Tetranychus urticae) are dipped into a preparation of the active compound of the desired concentration.
After the desired time, the activity in % is determined. 100% means that all the spider mites have been killed; 0% means that none of the spider mites have been killed.

Abultilon [10] = assay: Post-emergence test; conditions: greenhouse, 250 g a.i./ha, scored after three weeks
Experimental: (§3) To prepare a suitable active compound preparation, 1 part by weight of active compound is mixed with the stated amount of solvent, the stated amount of emulsifier is added, and the concentrate is diluted with water to the desired concentration.
(§4) Test plants with a height of 5-15 cm are sprayed with the active compound preparation in such a way that the amounts of active compound desired in each case are applied per unit area. The concentration of the spray mixture is chosen in such a way that the amounts of active compound desired in each case are applied in 1 000 1 of water/ha.
(§5) After three weeks, the degree of damage of the plants is scored in % damage in comparison with the development of the untreated control.
(§6) The figures denote: • 0% =no effect (like untreated control) • 100% =total destruction

Sinapis [11] = assay: Post-emergence test; conditions: greenhouse, 250 g a.i./ha, scored after three weeks
Experimental: as §3, §4, §5, §6

Setaria [12] = assay: Post-emergence test; conditions: greenhouse, 250 g a.i./ha, scored after three weeks
Experimental: as §3, §4, §5, §6

Avena fatua [13] = assay: Post-emergence test; conditions: greenhouse, 250 g a.i./ha, scored after three weeks
Experimental: as §3, §4, §5, §6

Echinochloa [14] = assay: Post-emergence test; conditions: greenhouse, 250 g a.i./ha, scored after three weeks
Experimental: as §3, §4, §5, §6

Alopecurus [15] = assay: Post-emergence test; conditions: greenhouse, 250 g a.i./ha, scored after three weeks
Experimental: as §3, §4, §5, §6

sugar beet [16] = assay: Post-emergence test; conditions: greenhouse, 250 g a.i./ha, scored after three weeks
Experimental: as §3, §4, §5, §6

Meloidogyne incognita = assay: Meloidogyne test; conditions: 20 ppm, with reference to gall formation
Experimental: (§7) To prepare a suitable active compound preparation, 1 part by weight of active compound is mixed with the stated amounts of solvent and emulsifier and the concentrate is diluted with water to the desired concentration.
Containers are filled with sand, active compound solution, Meloidogyne incognita egg/larval suspension and lettuce seeds. The lettuce seeds germinate and the plantlets develop. The galls develop on the roots.
After the desired time, the nematicidal efficacy is determined I n % with reference to gall formation. 100% means that no galls were found; 0% means that the number of galls on the treated plants corresponds to that of the untreated control.

[17] = system: caterpillars of the diamond-back moth (Plutella xylostella); assay: Plutella test; conditions: 1000 ppm
Experimental: as §2
Cabbage leaves (Brassica oleracea) are treated by being dipped into the preparation of active compound of the desired concentration and are infested with caterpillars of the diamond-back moth (Plutella xylostella) while the leaves are still moist.
(§8) After the desired time, the destruction in % is determined. 100% means that all the caterpillars have been killed; 0% means that none of the caterpillars have been killed.

Lolium = assay: Pre-emergence test; conditions: greenhouse, 125 g a.i./ha, scored after three weeks
Experimental: as §1

Cassia = assay: Pre-emergence test; conditions: greenhouse, 125 g a.i./ha, scored after three weeks
Experimental: as §1

Matricaria = assay: Pre-emergence test; conditions: greenhouse, 125 g a.i./ha, scored after three weeks
Experimental: as §1

Viola = assay: Pre-emergence test; conditions: greenhouse, 125 g a.i./ha, scored after three weeks
Experimental: as §1

sugar beet [18] = assay: Pre-emergence test; conditions: greenhouse, 125 g a.i./ha, scored after three weeks
Experimental: as §1

[19] = system: black bean aphids (Aphis fabae); assay: Aphis test, contact action; conditions: 1000 ppm
Experimental: as §7
Shoots of young field bean plants (Vicia faba) which are severely infested with black bean aphids (Aphis fabae) are treated by being dipped into the active compound preparation of the desired concentration.
After the desired period of time, the destruction is determined in %. 100% means that all of the aphids have been destroyed; 0% means that no aphids have been destroyed.

[20] = system: caterpillars of the armyworm (Spodoptera frugiperd); assay: Spodoptera frugiperda test; conditions: 1000 ppm
Experimental: as §2
Cabbage leaves (Brassica oleracea) are treated by being dipped into the preparation of active compound of the desired concentration and are infested with caterpillars of the armyworm (Spodoptera frugiperd) while the leaves are still moist.
as §8

[21] = system: green rice leafhopper (Nephotettix cincticeps); assay: Nephotettix test; conditions: 1000 ppm
Experimental: To produce a suitable preparation of active compound, 1 part
by weight of active compound is mixed with the stated amounts of solvent and emulsifier, and the concentrate is diluted with emulsifier-containing water to the desired concentration.
Rice seedlings (Oryza sativa) are treated by being dipped into the preparation of active compound of the desired concentration and are infested with the green rice leafhopper (Nephotettix cincticeps) while the leaves are still moist.
After the desired time, the destruction in % is determined. 100% means that all the leafhoppers have been killed; 0% means that none of the leafhoppers have been killed.

CCc1cc(Cl)cc(OC)c1C1=C(O)C2(CCC(OC)CC2)NC1=O (single isomer, unassigned) [Example I-1-a-3]
Destruction in % after 6 d [1]: 90% | Destruction in % after 7 d [2]: 80% | degree of damage, Abultilon (Abultilon [3]): 80% | degree of damage, Sinapis (Sinapis [4]): 80% | degree of damage, Setaria (Setaria [5]; 250 g a.i./ha): 100% | degree of damage, Avena fatua (Avena fatua [6]): 100% | degree of damage, Echinochloa (Echinochloa [7]): 100% | degree of damage, Alopecurus (Alopecurus [8]; 250 g a.i./ha): 80% | Destruction in % after 7 d ([9]; 100 ppm): 80% | degree of damage, Abultilon (Abultilon [10]): 70% | degree of damage, Sinapis (Sinapis [11]): 80% | degree of damage, Setaria (Setaria [12]): 100% | degree of damage, Avena fatua (Avena fatua [13]): 100% | degree of damage, Echinochloa (Echinochloa [14]): 100% | degree of damage, Alopecurus (Alopecurus [15]): 100% | degree of damage, sugar beet (sugar beet [16]): 0% | Destruction in % after 14 d (Meloidogyne incognita): 98%

COc1cc(Cl)cc(C)c1C1=C(O)C2(CCC(C)CC2)NC1=O (centres unmarked) [Example I-1-a-1]
Destruction in % after 6 d [1]: 95% | Destruction in % after 7 d [2]: 100% | Destruction in % after 7 d [17]: 100% | degree of damage, Lolium (Lolium): 100% | degree of damage, Setaria (Setaria [5]; 125 g a.i./ha): 100% | degree of damage, Cassia (Cassia): 100% | degree of damage, Alopecurus (Alopecurus [8]; 125 g a.i./ha): 100% | degree of damage, Matricaria (Matricaria): 90% | degree of damage, Viola (Viola): 90% | degree of damage, sugar beet (sugar beet [18]): 0% | Destruction in % after 6 d [19]: 100% | Destruction in % after 7 d [20]: 100% | Destruction in % after 7 d ([9]; 1000 ppm): 100% | degree of damage, Setaria (Setaria [12]): 100% | degree of damage, Avena fatua (Avena fatua [13]): 100% | degree of damage, Alopecurus (Alopecurus [15]): 100% | degree of damage, sugar beet (sugar beet [16]): 0% | Destruction in % after 6 d [21]: 100%
